How the values were obtained:
[1] = biological target: Glutamate [NMDA] receptor; assay: Tested for the inhibitory activity by the inhibition of excitatory L-[3H]Glutamate binding to NMDA recognition sites; assay type: protein-complex assay
[2] = Tested for the ability to inhibit the NMDA induced seizures against NMDA antagonist by intraperitoneal administration; assay type: functional; settings: ip
[3] = biological target: Glutamate [NMDA] receptor; assay: Tested for the inhibitory activity by the inhibition of excitatory [3H]CGS-19,755 binding to NMDA recognition sites; assay type: protein-complex assay
[4] = Tested for the ability to inhibit the pentylenetetrazole induced seizures against NMDA antagonist by intraperitoneal administration; assay type: functional; settings: ip
[5] = Tested for the ability to inhibit the maximal electroshock induced seizures against NMDA antagonist by intraperitoneal administration; assay type: functional; settings: ip

| SMILES | IC50 [1] [nM] | ED50 [2] [mg/kg] | IC50 [3] [nM] | ED50 [4] [mg/kg] | ED50 [5] [mg/kg] |
| --- | --- | --- | --- | --- | --- |
| N[C@H](C[C@H]1CCCC[C@H]1CCP(=O)(O)O)C(=O)O | 607 | 2.68 | 148 | 4.51 | 13.4 |
| N[C@@H](C[C@@H]1CCCC[C@@H]1CCP(=O)(O)O)C(=O)O | 6460 |  | 239 |  |  |
| N[C@H](C[C@@H]1CCCC[C@@H]1CCP(=O)(O)O)C(=O)O | 3130 |  | 555 |  |  |
| N[C@@H](C[C@H]1CCCC[C@H]1CCP(=O)(O)O)C(=O)O | 2590 |  | 264 |  |  |
| NC(CC1CCCCC1CCP(=O)(O)O)C(=O)O (stereo unspecified) | 1600 | 12.4 | 976 | 6.02 | > 15 |
| O=C(O)[C@H]1CN(CCCP(=O)(O)O)CCN1 | 321 |  | 86 |  |  |
| O=C(O)[C@@H]1C[C@H](CP(=O)(O)O)CCN1 (single isomer, unassigned) [SELFOTEL] |  | 2.64 |  | 29 | 12.9 |
| CC(=CC(N)C(=O)O)CP(=O)(O)O (stereo unspecified) [CGP-37849] | 25.7 | 3.41 | 18 | > 10 | 3.64 |

From ChEMBL document CHEMBL1152025, “Enzymatic asymmetric synthesis of (2R, 4R, 5S)-2-amino-4,5-(1,2-cyclohexyl)-7-phosphonoheptanoic acid, a potent, selective and competitive NMDA antagonist” (Bioorg Med Chem Lett, 1993)
